Data published in patent US10760052B2, “Method of inhibiting tau phosphorylation” (priority 2012, dated 2020).
Like-named read-outs stand apart in the source and are kept apart here.

Target: T1, mu opiate receptor (MOR) (Rattus norvegicus, UniProt P33535)
T1 construct: from tissue; host or cells: striatum (membrane preparation)
Format: biochemical
Protocol: To assess the mu opiate receptor (MOR) agonist activity of positive compounds from the FLNA screening, compounds were tested in a [^35S]GTPγS binding assay using striatal membranes. […] This assay measures a functional consequence of receptor occupancy at one of the earliest receptor-mediated events. The assay permits for traditional pharmacological parameters of potency, efficacy and antagonist affinity, with the advantage that agonist measures are not subjected to amplification or other modulation that may occur when analyzing parameters further downstream of the receptor.
Thus, striatal tissue was homogenized in 10 volumes of ice cold 25 mM HEPES buffer, pH 7.4, which contained 1 mM EGTA, 100 mM sucrose, 50 μg/ml leupeptin, 0.04 mM PMSF, 2 μg/ml soybean trypsin inhibitor and 0.2% 2-mercaptoethanol. The homogenates were centrifuged at 800×g for 5 minutes and the supernatants were centrifuged at 49,000×g for 20 minutes.
The resultant striatal membrane preparation (200 μg) was admixed and maintained (incubated) at 30° C. for 5 minutes in reaction buffer as above that additionally contained 1 mM MgCl2 and 0.5 nM [^35S]GTPγS (0.1 μCi/assay, PerkinElmer Life and Analytical Sciences) in a total volume of 250 μl and continued for 5 minutes in the absence or presence of 0.1-10 μM of an assayed compound of interest. The reaction was terminated by dilution with 750 μl of ice-cold reaction buffer that contained 20 mM MgCl2 and 1 mM EGTA and immediate centrifugation at 16,000×g for 5 minutes.
Normal rabbit serum (1 μl) was added to 1 ml of lysate and incubated at 25° C. for 30 minutes. Nonspecific immune complexes were removed by incubation with 25 μl of protein A/G-conjugated agarose beads at 25° C. for 30 minutes followed by centrifugation at 5,000×g at 4° C. for 5 minutes. The supernatant was divided and separately incubated at 25° C. for 30 minutes with antibodies raised against Gαo proteins (1:1,000 dilutions).
The immunocomplexes so formed were collected by incubation at 25° C. for 30 minutes with 40 μl of agarose-conjugated protein A/G beads and centrifugation at 5,000×g at 4° C. for 5 minutes. The pellet was washed and suspended in buffer containing 50 mM Tris-HCl, pH 8.0, and 1% NP-40. The radioactivity in the suspension was determined by liquid scintillation spectrometry.

[1] = 0.1 μM compound, striatal membranes, Series C-2
[2] = 1 μM compound + 1 μM β-FNA (selective MOR antagonist), Series C-2
[3] = 1 μM compound, striatal membranes, Series C-2
[4] = [35S]GTPγS binding to Gαo in striatal membranes, compound 0.1 μM
[5] = [35S]GTPγS binding to Gαo in striatal membranes, compound 1 μM
[6] = [35S]GTPγS binding to Gαo in striatal membranes, compound 1 μM plus 1 μM β-funaltrexamine (MOR antagonist)

T1 sequence (P33535 whole entry): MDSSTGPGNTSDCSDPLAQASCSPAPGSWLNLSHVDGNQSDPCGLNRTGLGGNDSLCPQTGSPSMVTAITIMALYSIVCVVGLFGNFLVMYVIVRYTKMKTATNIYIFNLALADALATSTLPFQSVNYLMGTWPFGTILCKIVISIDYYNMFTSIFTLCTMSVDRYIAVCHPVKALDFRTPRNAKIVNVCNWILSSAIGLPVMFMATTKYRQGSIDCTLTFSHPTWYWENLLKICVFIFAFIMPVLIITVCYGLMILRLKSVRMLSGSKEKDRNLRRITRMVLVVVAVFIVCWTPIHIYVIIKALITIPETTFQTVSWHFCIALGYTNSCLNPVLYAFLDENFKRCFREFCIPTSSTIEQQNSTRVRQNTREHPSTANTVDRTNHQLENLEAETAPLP

SMILES | % DAMGO (0.1 μM) | % DAMGO (1 μM) | % DAMGO + BFNA | [35S]GTPγS binding, FLNA-Binding Compound as Agonist at 0.1 μM | [35S]GTPγS binding, FLNA-Binding Compound as Agonist at 1 μM | [35S]GTPγS binding, FLNA-Binding Compound as Agonist at 1 μM + BFNA | [35S]GTPγS binding, FLNA-Binding Compound as Agonist at 0.1 μM [1] | [35S]GTPγS binding, FLNA-Binding Compound as Agonist at 1 μM + BFNA [2] | [35S]GTPγS binding, FLNA-Binding Compound as Agonist at 1 μM [3] | Concentration of FLNA-Binding Compound as Agonist 0.1 μM [4] | Concentration of FLNA-Binding Compound as Agonist 1 μM [5] | Concentration of FLNA-Binding Compound as Agonist 1 μM + BFNA [6] | Concentration of FLNA-Binding Compound as Agonist 0.1 μM | Concentration of FLNA-Binding Compound as Agonist 1 μM | Concentration of FLNA-Binding Compound as Agonist 1 μM + BFNA
COc1ccc(S(=O)(=O)N2CCOC23CCN(CC2CC2)CC3)cc1 [Compound C0090M] | 137.7% | 155.2% | 118.8% | 237.0% | 341.0% | 41.0% | – | – | – | – | – | – | – | – | –
O=[N+]([O-])c1ccc(S(=O)(=O)N2CCC3(CC2)NCCCO3)cc1 [Compound C0045] | 88.3% | 109.1% | 634.3% | – | – | – | 149.2% | 105.3% | 238.8% | – | – | – | – | – | –
COc1ccc(C(=O)N2CCOC23CCN(S(=O)(=O)c2ccc(OC)cc2)CC3)cc1 [Compound C0019] | 59.1% | 68.1% | 80.4% | – | – | – | – | – | – | 104.4% | 176.6% | 52.8% | – | – | –
COc1ccccc1S(=O)(=O)N1CCC2(CC1)OCCN2S(=O)(=O)c1ccccc1OC [Compound C0003] | 91.9% | 83.3% | 163.9% | – | – | – | – | – | – | 162.3% | 215.9% | 107.7% | – | – | –
CC1CN(CC(O)COc2cccc(F)c2)CC(C)O1 (stereo not drawn) [Compound A0049] | 118.4% | 134.2% | 144.9% | – | – | – | – | – | – | 232.3% | 370.3% | 107.1% | – | – | –
CC1CCC(C(C)C)C(OCC(O)CN2CCC2)C1 (stereo not drawn) [Compound A0015] | 64.8% | 56.2% | 120.0% | – | – | – | – | – | – | 110.9% | 150.1% | 62.5% | – | – | –
CC(=O)c1ccc(S(=O)(=O)N2CCOC23CCN(C)CC3)cc1 [Compound C0093M] | 81.3% | 96.4% | 127.5% | – | – | – | 140.0% | 44.0% | 211.8% | – | – | – | – | – | –
COc1cccc(CC(=O)CC2c3c(cc4c(c3OC)OCO4)CC[N+]2(C)C)c1OC (stereo not drawn) [Compound B0038] | 94.2% | 88.7% | 359.2% | – | – | – | – | – | – | 147.5% | 205.5% | 117.1% | – | – | –
O=C1CNC2(CCNCC2)N1Cc1ccccc1 [Compound C0114M] | 77.6% | 71.4% | 91.3% | 114.0% | 144.3% | 35.9% | – | – | – | – | – | – | – | – | –
COc1ccccc1CC(O)CC1c2c(cc3c(c2OC)OCO3)CCN1C (stereo not drawn) [Compound B0030] | 62.6% | 103.4% | 172.9% | – | – | – | – | – | – | 107.2% | 276.1% | 90.1% | – | – | –
O=C(OCc1ccccc1)c1ccc(S(=O)(=O)N2CCC3(CC2)OCCN3S(=O)(=O)c2ccc(C(=O)OCc3ccccc3)cc2)cc1 [Compound C0042] | 98.9% | 119.2% | 666.3% | – | – | – | – | – | – | 167.1% | 260.9% | 110.6% | – | – | –
CC1CCN(CC(O)COC2CC(C)CCC2C(C)C)CC1 (stereo not drawn) [Compound A0006] | 113.8% | 82.9% | 68.7% | – | – | – | – | – | – | 170.0% | 190.9% | 18.2% | – | – | –
CC(=O)c1ccc(OCC(O)CN2CC(C)OC(C)C2)cc1 (stereo not drawn) [Compound A0044] | 89.8% | 75.8% | 182.3% | – | – | – | – | – | – | 176.2% | 209.1% | 134.7% | – | – | –
O=S(=O)(c1ccc(Br)cc1F)N1CCC2(CC1)OCCN2S(=O)(=O)c1ccc(Br)cc1F [Compound C0078] | 82.4% | 106.4% | 359.4% | – | – | – | – | – | – | 138.1% | 236.6% | 170.7% | – | – | –
COc1ccc(S(=O)(=O)N2CCCC3(C2)OCCN3S(=O)(=O)c2ccc(OC)cc2)cc1 (stereo not drawn) [Compound C0145M] | 112.2% | 88.7% | 95.3% | – | – | – | – | – | – | 193.0% | 289.2% | 87.0% | – | – | –
CS(=O)(=O)c1ccc(S(=O)(=O)N2CCOC23CCN(CC2CC2)CC3)cc1 [Compound C0126M] | 108.5% | 119.3% | 228.4% | – | – | – | 181.8% | 108.5% | 265.3% | – | – | – | – | – | –
CCOc1ccc(C(=O)CC2c3c(cc4c(c3OC)OCO4)CC[N+]2(C)C)cc1F (stereo not drawn) [Compound B0020] | 30.1% | 68.0% | 47.8% | – | – | – | – | – | – | 51.6% | 181.6% | 24.9% | – | – | –
CC(=O)c1ccc(S(=O)(=O)N2CCC3(CC2)NC(=O)C(Cc2cnc[nH]2)N3S(=O)(=O)c2ccc(C(C)=O)cc2)cc1 (stereo not drawn) [Compound C0084M] | 97.3% | 114.9% | 280.4% | – | – | – | – | – | – | 163.1% | 255.5% | 133.2% | – | – | –
CN1CCC2(CC1)NCC(=O)N2Cc1ccccc1 [Compound C0105M] | 104.7% | 88.8% | 150.7% | – | – | – | 198.1% | 73.1% | 220.3% | – | – | – | – | – | –
CC1CCC(C(C)C)C(OCC(O)Cn2ccc3ccccc32)C1 (stereo not drawn) [Compound A0078] | 124.9% | 92.3% | 274.2% | – | – | – | – | – | – | – | – | – | 250.5% | 289.9% | 147.8%
COc1cc(S(=O)(=O)N2CCC3(CC2)OCCN3S(=O)(=O)c2cc(OC)c(OC)c(OC)c2)cc(OC)c1OC [Compound C0062] | 81.9% | 134.7% | 149.9% | – | – | – | – | – | – | 127.8% | 310.5% | 59.8% | – | – | –
CC1CCC(C(C)C)C(OCC(O)CN(C(C)C)C(C)C)C1 (stereo not drawn) [Compound A0037] | 90.7% | 85.6% | 141.5% | – | – | – | – | – | – | 177.9% | 236.2% | 104.6% | – | – | –
CC1CCC(C(C)C)C(OCC(O)CN2CC(C)CC(C)C2)C1 (stereo not drawn) [Compound A0008] | 109.6% | 102.1% | 505.3% | – | – | – | – | – | – | 163.8% | 235.0% | 133.9% | – | – | –
